Data on seven molecules can be found in patent US20030186817A1, “SUBSTITUTED 2,4-DIAMINO-1,3,5-TRIAZINES, PROCESSES FOR THEIR PREPARATION AND THEIR USE AS HERBICIDES AND PLANT GROWTH REGULATORS” (priority 1998, published 2003).

Holding throughout (assay type): in vivo
Test [1] relates to Stellaria media, Amaranthus retroflexus, Sinapis avreuse, Avena fatura, Lolium multiflorum and Setaria viridis. Briefly: Pre-emergence action against weeds (greenhouse pot test, visual rating). Conditions: application rate of 3.0 kg or less of active substance per hectare, trial period of 3 to 4 weeks. In outline:
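Seeds in sandy loam were treated pre-emergence by soil-surface application of WP or EC formulations at various dosages in 600–800 L water/ha. After 3–4 weeks in a greenhouse, damage or reduced emergence was rated visually against untreated controls.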

Test [2] has the same test system. The test can be described thus: Post-emergence action against weeds (greenhouse pot test, visual rating). Conditions: three-leaf stage, application rate of 3.0 kg or less of active substance per hectare, 3 to 4 weeks in greenhouse. In outline:
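Greenhouse pot plants sown in sandy loam were sprayed at the three-leaf stage, 2–3 weeks after sowing. Compounds were formulated as wettable powders or emulsion concentrates and applied onto green parts at various dosages. Action was rated visually against untreated controls after 3–4 weeks.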

Test [3] has as its system Cyperus iria and Echinocloa crus-galli. The test can be described thus: Action on weeds in rice (paddy rice conditions, visual rating). Note: test concentration or dose not given here. Conditions: dammed height of water 2-3 cm, about three weeks after application. The source says: Typical rice weeds such as Echinocloa crus galli and Cyperus iria are cultivated in a greenhouse under paddy rice conditions ([…] height of water: 2-3 cm). After the treatment, the test plants are set up in a greenhouse under optimum growth conditions and are maintained in this way under these conditions throughout the test period. About three weeks after application, evaluation is made by visual rating of the damage to the plants by comparison with untreated controls.

As for `CC(COCc1ccccc1)Nc1nc(N)nc(C(C)(C)F)n1` (stereo not drawn) [Example 201], the “herbicidal activity pre-emergence (damage to the plants or negative effect on emergence, rated visually)” value (shortened to “herbicidal activity pre-emergence”) in test [1] is “good and in most cases very good herbicidal activity”. In addition, in test [2], the “herbicidal activity post-emergence (rated visually)” value (“herbicidal activity post-emergence” for short) is “good and in most cases very good herbicidal activity”. Moreover, the “herbicidal activity against rice weeds (visual rating of damage)” value (“herbicidal activity against rice weeds” for short) in test [3] is listed as “very good herbicidal activity”.

For the molecule `CCC(CCOc1cc(C)cc(C)c1)Nc1nc(N)nc(C(C)C)n1` (stereo not drawn) [Example 340], the “herbicidal activity pre-emergence” value in test [1] was “good and in most cases very good herbicidal activity”. Further, the “herbicidal activity post-emergence” value in test [2] was “good and in most cases very good herbicidal activity”. Also, the “herbicidal activity against rice weeds” value in test [3] is given as “very good herbicidal activity”.

For the molecule `CCC(CCOc1cccc(C)c1)Nc1nc(N)nc(C(C)C)n1` (stereo not drawn) [Example 358], in test [1], the “herbicidal activity pre-emergence” value is “good and in most cases very good herbicidal activity”. Moreover, the “herbicidal activity post-emergence” value in test [2] is “good and in most cases very good herbicidal activity”. The “herbicidal activity against rice weeds” value in test [3] is given as “very good herbicidal activity”.

In the case of `CCC(CCOc1cccc(OC)c1)Nc1nc(N)nc(C(C)C)n1` (stereo not drawn) [Example 376], in test [1], the “herbicidal activity pre-emergence” value was “good and in most cases very good herbicidal activity”. Besides, the “herbicidal activity post-emergence” value in test [2] was “good and in most cases very good herbicidal activity”. In addition, in test [3], the “herbicidal activity against rice weeds” value is “very good herbicidal activity”.

Regarding `CCC(CCOc1cccc(Cl)c1)Nc1nc(N)nc(C(F)(F)C(F)F)n1` (stereo not drawn) [Example 347], the “herbicidal activity pre-emergence” value in test [1] was “good and in most cases very good herbicidal activity”. In addition, in test [2], the “herbicidal activity post-emergence” value was “good and in most cases very good herbicidal activity”. Further, the “herbicidal activity against rice weeds” value in test [3] is given as “very good herbicidal activity”.

On to `COc1cccc(OCCC(C)Nc2nc(N)nc(C(F)(F)C(F)F)n2)c1` (stereo not drawn) [Example 311], for which, in test [1], the “herbicidal activity pre-emergence” value is “good and in most cases very good herbicidal activity”. Besides, the “herbicidal activity post-emergence” value in test [2] was “good and in most cases very good herbicidal activity”. Besides, the “herbicidal activity against rice weeds” value in test [3] is listed as “very good herbicidal activity”.

Turning to `Cc1ccccc1C(=O)OCC(C)Nc1nc(N)nc(C(C)C)n1` (stereo not drawn) [Example 41], in test [1], the “herbicidal activity pre-emergence” value is “good and in most cases very good herbicidal activity”. Further, the “herbicidal activity post-emergence” value in test [2] was “good and in most cases very good herbicidal activity”. Also, in test [3], the “herbicidal activity against rice weeds” value was “very good herbicidal activity”.
